In US20250353816A1, “QUINOLINES AS MODULATORS OF POLRMT” (Pretzel Therapeutics, Inc., priority 2024, published 2025) one finds IC50 data, which are given here for 21 compounds.

In the experiment the target is POLRMT (Homo sapiens (Human), UniProt O00411). The experiment can be described thus: homogeneous TR-FRET assay of mitochondrial transcription (inhibition of POLRMT). In kind it is biochemical. The settings on record: 7.5 nM POLRMT, 15 nM TFB2M, 30 nM TFAM, 60 minutes at 37° C. The method, then: The inhibitory activity of the compounds of the present invention against POLRMT were determined by assays based on Bergbrede, T., et al., “An adaptable high-throughput technology enabling the identification of specific transcription modulators,” SLAC Discov., 22, 378-386 (2017).
Chain of POLRMT (O00411 42-1230): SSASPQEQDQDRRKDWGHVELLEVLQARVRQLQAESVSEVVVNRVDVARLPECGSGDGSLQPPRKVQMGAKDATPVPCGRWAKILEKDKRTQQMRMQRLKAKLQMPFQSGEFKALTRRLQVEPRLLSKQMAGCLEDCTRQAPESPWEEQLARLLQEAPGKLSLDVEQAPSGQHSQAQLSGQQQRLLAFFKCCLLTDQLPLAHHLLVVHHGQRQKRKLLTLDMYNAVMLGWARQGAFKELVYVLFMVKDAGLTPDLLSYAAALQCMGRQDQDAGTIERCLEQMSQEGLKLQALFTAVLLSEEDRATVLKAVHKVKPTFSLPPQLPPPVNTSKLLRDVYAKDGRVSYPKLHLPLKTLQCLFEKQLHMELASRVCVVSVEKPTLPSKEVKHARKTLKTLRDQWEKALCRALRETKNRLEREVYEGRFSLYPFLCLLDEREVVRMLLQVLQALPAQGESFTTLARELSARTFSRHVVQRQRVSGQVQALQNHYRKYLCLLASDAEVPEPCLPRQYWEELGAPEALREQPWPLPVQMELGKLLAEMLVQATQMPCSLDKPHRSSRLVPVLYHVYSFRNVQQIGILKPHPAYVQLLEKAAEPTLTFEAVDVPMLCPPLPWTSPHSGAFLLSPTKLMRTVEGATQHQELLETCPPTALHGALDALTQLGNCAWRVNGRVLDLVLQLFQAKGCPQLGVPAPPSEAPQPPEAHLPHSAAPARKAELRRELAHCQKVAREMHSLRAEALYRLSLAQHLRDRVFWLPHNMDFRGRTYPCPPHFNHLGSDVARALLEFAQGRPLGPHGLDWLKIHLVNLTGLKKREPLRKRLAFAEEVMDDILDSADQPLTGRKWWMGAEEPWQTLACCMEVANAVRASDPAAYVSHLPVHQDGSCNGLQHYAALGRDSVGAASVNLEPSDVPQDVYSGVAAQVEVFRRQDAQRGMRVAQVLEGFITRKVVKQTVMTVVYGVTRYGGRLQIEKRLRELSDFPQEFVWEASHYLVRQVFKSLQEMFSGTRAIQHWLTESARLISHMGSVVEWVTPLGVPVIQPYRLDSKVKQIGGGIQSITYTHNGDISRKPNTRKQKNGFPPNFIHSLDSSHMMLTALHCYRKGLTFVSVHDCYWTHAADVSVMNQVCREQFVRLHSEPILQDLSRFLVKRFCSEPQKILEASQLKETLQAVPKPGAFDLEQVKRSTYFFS
The ability of some compounds of the present invention to inhibit POLRMT were determined in a homogeneous TR-FRET Assay using high-throughput screening in a 384-well plate format. This method is used to monitor the activity of mitochondrial transcription through measurement of its product, a 407 bp long RNA transcript. Detection of the product is facilitated by hybridization of two DNA-oligonucleotide probes to specific and adjacent sequences within the RNA product sequence. Upon annealing of the probes, two fluorophores are coupled directly to an acceptor nucleotide probe (ATTO647, 5′), or introduced via a coupled streptavidin with a biotinylated donor nucleotide probe (Europium cryptate) that is brought into sufficient proximity to serve as a fluorescence-donor-acceptor pair. Thus, a FRET signal at 665 nm is generated upon excitation at 340 nm.
Proteins used as transcription factors (POLRMT: NP_005026.3, TFAM: NP_003192.1, TFB2M: NP_071761.1) are diluted from their stocks to working concentrations of 1 μM, 20 μM and 4 μM respectively, in a dilution buffer containing 20 mM Tris-HCl (pH 8.0), 200 mM NaCl, 10% (v/v) glycerol, 1 mM Dithiothreitol (DTT), 0.5 mM EDTA.
DNA template is a pUC18 plasmid with the mitochondrial light strand promotor sequence (1-477) cloned between HindIII and BamHI sites. The DNA template is restriction linearized proximal to the promotor 3′-end (pUC-LSP).
The reaction mixture (10 uL) containing 7.5 nM POLRMT, 15 nM of TFB2M, 30 nM of TFAM, 0.5 nM of DNA template and 500 μM nucleotide triphosphate mix (NTPs) in a reaction buffer (containing 10 mM Tris-HCl (pH 7.5), 10 mM MgCl2, 40 mM NaCl, 10 mM DTT, 0.005% (w/v) Tween-20, 160 units/ml Rnase inhibitor and 0.1 mg/mL BSA) are dispensed to compounds in microplates, using a Thermo Multidrop® dispenser, and incubated at 37° C. in a VWR INCU-Line incubator for 60 minutes after mixing. No nucleotide triphosphate mix is added to negative control samples. Microplates with compounds to be tested in the assay are prepared from 10 mM compound stocks in 100% DMSO, equal amounts of DMSO without any compound are added to positive control and negative control samples.
During the incubation, a mix of the detection reagents is prepared in a buffer such that the enzymatic reaction is terminated due to chelating of Mg-ions and increased ionic strength, containing 50 mM Tris-HCl (pH 7.5), 700 mM NaCl, 20 mM EDTA, and 0.01% (w/v) Tween-20. Europium-streptavidin is pre-incubated with a 200-fold molar excess of a random sequence oligonucleotide to block unspecific binding of oligo, for two hours at ambient temperature in the dark. Afterwards, the blocked Europium-streptavidin is kept on ice until use.
At the end of the enzymatic reaction time, 5 μL detection oligo mix in the detection buffer is added, and assay plates are mixed and kept at ambient temperature for one hour, protected from light. The concentration of the Acceptor nucleotide oligo (e.g., ATTO647N-5′-[…]-3′ (SEQ ID NO: 1)) and Donor nucleotide oligo (e.g., bio-5′-AACACATCTCT(-bio)GCCAAACCCCA-bio-3′ (SEQ ID NO: 2)) in each assay well is 1 nM, and 3 nM, respectively.
After incubation with oligo mix, 5 μL of pre-blocked Europium-streptavidin reagent is dispensed to each assay well, assay plates are again mixed and kept at ambient temperature for one hour, protected from light.
The generated signal is measured with BMG Pherastar microtiter plate reader with a TRF light unit, using excitation at 340 nm, an integration time of 200 μs, and a delay time of […], before detection at 620 nm and 665 nm. The ratio of donor- and acceptor-fluorescence is used as a measure of the generated transcript product (i.e. enzymatic activity).
For orientation: Time-resolved FRET reads energy transfer from a long-lived donor to a nearby acceptor.
As usually defined, the IC50 is the concentration that gives 50% inhibition. Read a low IC50 as greater potency in that assay. In the case of `Cc1ccccc1-c1ccnc2cc(CC(=O)NCC3CC3)ccc12` [Example 41, N-(cyclopropylmethyl)-2-(4-(o-tolyl)quinolin-7-yl)acetamide], the IC50 came out at 91 µM.

In the case of `Cc1ccccc1-c1ccnc2cc(C(C)CC(=O)N(C)C)ccc12` (single isomer, unassigned) [Example 38, N,N-dimethyl-3-(4-(o-tolyl)quinolin-7-yl)butanamide], the IC50 is 37 µM.

For `Cc1ccccc1-c1ccnc2cc(CN(C)S(=O)(=O)c3ccccc3)ccc12` [Example 23, N-methyl-N-((4-(o-tolyl)quinolin-7-yl)methyl)benzenesulfonamide], the IC50 was > 100 µM. As for `Cc1ccccc1-c1ccnc2cc(CNS(=O)(=O)c3ccccc3)ccc12` [Example 14, N-((4-(o-tolyl)quinolin-7-yl)methyl)benzenesulfonamide], the figure is 68 µM. For `Cc1ccccc1-c1ccnc2cc(CN3CCOCC3)ccc12` [Example 20, 4-((4-(o-tolyl)quinolin-7-yl)methyl)morpholine], the half-maximal inhibitory concentration (IC50) was > 100 µM. As for `CC(=O)N1CCN(Cc2ccc3c(-c4ccccc4C)ccnc3c2)CC1` [Example 21, 1-(4-((4-(o-tolyl)quinolin-7-yl)methyl)piperazin-1-yl)ethan-1-one], the figure is > 100 µM; as for `Cc1ccccc1-c1ccnc2cc(CCO)ccc12` [Example 17, 2-(4-(o-tolyl)quinolin-7-yl)ethan-1-ol], 10 µM; as for `Cc1ccccc1-c1ccnc2cc(CN3CCCC3)ccc12` [Example 26, 7-(pyrrolidin-1-ylmethyl)-4-(o-tolyl)quinoline], > 100 µM. The value for `Cc1ccccc1-c1ccnc2cc(NC(C)C(=O)N3CCOCC3)ccc12` (single isomer, unassigned) [Example 50, 1-morpholino-2-((4-(o-tolyl)quinolin-7-yl)amino)propan-1-one] was 2 µM. In the case of `Cc1ccccc1-c1ccnc2cc(NC(C)C(=O)N3CCOCC3)ccc12` (stereo not drawn) [Example 46, 1-morpholino-2-((4-(o-tolyl)quinolin-7-yl)amino)propan-1-one], the IC50 turned out to be 8 µM. As for `Cc1ccccc1-c1ccnc2cc(NC(C)C(=O)N(C)C)ccc12` (stereo not drawn) [Example 47, N,N-dimethyl-2-((4-(o-tolyl)quinolin-7-yl)amino)propanamide], the figure is 26 µM; as for `Cc1ccccc1-c1ccnc2cc(CNS(C)(=O)=O)ccc12` [Example 22, N-((4-(o-tolyl)quinolin-7-yl)methyl)methanesulfonamide], 72 µM; as for `Cc1ccccc1-c1ccnc2cc(C(C)OCC(=O)N(C)C)ccc12` (stereo not drawn) [Example 55, N,N-dimethyl-2-(1-(4-(o-tolyl)quinolin-7-yl)ethoxy)acetamide], > 100 µM. As for `Cc1ccccc1-c1ccnc2cc(CC(=O)N3CCN(C)CC3)ccc12` [Example 39, 1-(4-methylpiperazin-1-yl)-2-(4-(o-tolyl)quinolin-7-yl)ethan-1-one], the figure is > 100 µM. As for `CC(=O)Nc1ccc2c(-c3ccccc3C)ccnc2c1` [Example 11, N-(4-(o-tolyl)quinolin-7-yl)acetamide], the figure is 10 µM; as for `Cc1ccccc1-c1ccnc2cc(C(C)CC(=O)N(C)C)ccc12` (single isomer, unassigned) [Example 37, N,N-dimethyl-3-(4-(o-tolyl)quinolin-7-yl)butanamide], 79 µM. In the case of `Cc1ccccc1-c1ccnc2cc(CN(C)S(C)(=O)=O)ccc12` [Example 32, N-methyl-N-((4-(o-tolyl)quinolin-7-yl)methyl)methanesulfonamide], half-maximal inhibition (IC50) was put at 24 µM. `COCCc1ccc2c(-c3ccccc3C)ccnc2c1` [Example 31, 7-(2-methoxyethyl)-4-(o-tolyl)quinoline] yielded an IC50 of 6 µM. As for `Cc1ccccc1-c1ccnc2cc(C#N)ccc12` [Example 33, 4-(o-tolyl)quinoline-7-carbonitrile], the figure is 74 µM. The value for `Cc1ccccc1-c1ccnc2cc(NC(C)C(=O)N3CCCCC3)ccc12` (stereo not drawn) [Example 45, 1-(piperidin-1-yl)-2-((4-(o-tolyl)quinolin-7-yl)amino)propan-1-one] was 4 µM; that for `Cc1ccccc1-c1ccnc2cc(C(C)OCC(N)=O)ccc12` (stereo not drawn) [Example 56, 2-(1-(4-(o-tolyl)quinolin-7-yl)ethoxy)acetamide] was > 100 µM.
